Results as given in patent US6495680B1, “Helices and nanotubes on folding compositions and method of making same” (The University of Toledo, priority 2000, dated 2002).

Test: Solubility of oligomers in organic solvents
Format: physicochemical
Text: Oligomers such as the homologues H, K, L, M, N, and O are synthesized by treating acid chloride with the corresponding amines.
From H to N, all the amide-H resonances appear at positions >9.2 ppm. […] That one amide-H resonance, appears at δ8.86.

COc1ccccc1NC(=O)c1cc(NC(=O)c2cc([N+](=O)[O-])c(OC)cc2OC)c(OC)cc1OC [K]
solubility in DMF (DMF): increasingly insoluble | behaviour of the freshly prepared compound in DMF on standing (freshly prepared, added to DMF, standing at room temperature, precipitation faster at elevated temperatures): gradually precipitate out
